Patent US20260138957A1, “UREA-LINKED 2-AMINOIMIDAZOLE DIMER POTENTIATORS” (UNIVERSITY OF NOTRE DAME DU LAC, priority 2022, published 2026)
pIC50: −log10 of the molar value. ≈ marks a conversion by molar mass, not a printed value. Where two headings read alike, the source gives them in different places.

Columns and labels:
[1] = Plasma stability; assay type: in vitro ADME; settings: 4 hours
[2] = system: red blood cells; assay: Hemolysis assay; assay type: cell-based; settings: 1% Triton X as 100% lysis control
[3] = system: P. aeruginosa (PAO1); assay: CLR MIC in combination with 9k against PAO1; assay type: cell-based, Pseudomonas aeruginosa
[4] = system: K. pneumoniae (strain KP 2146); assay: CLR MIC in combination with 9k against KP 2146; assay type: cell-based, Klebsiella pneumoniae
[5] = system: K. pneumoniae (strain KP 2146); assay: Standalone MIC against KP 2146; assay type: cell-based, Klebsiella pneumoniae; settings: 9k alone
[6] = system: Escherichia coli (EC 25922); assay: Standalone MIC against EC 25922; assay type: cell-based; settings: 9k alone, read-out: Compound MIC
[7] = system: AB5075; assay: Potentiation of azithromycin, erythromycin and rifampin against AB5075; assay type: cell-based, Acinetobacter baumannii
[8] = system: P. aeruginosa (PAO1); assay: Standalone MIC against PAO1; assay type: cell-based, Pseudomonas aeruginosa; settings: 9k alone
[9] = system: panel of A. baumannii isolates; assay: CLR potentiation against panel of A. baumannii isolates; assay type: cell-based, Acinetobacter baumannii; settings: 25 AB strains, adjuvant at 10 μM (4.8 μg/mL) or less
[10] = system: A. baumannii strain 5075 (AB5075); assay: Clarithromycin potentiation against AB5075 (CLR MIC in presence of adjuvant); assay type: cell-based, Acinetobacter baumannii; settings: for CLR MIC / Fold Reduction of CLR MIC / Clarithromycin (CLR) MIC: AB5075
[11] = system: HepG2 cells; assay: Cytotoxicity, XTT assay with HepG2 cells; settings: read-out: IC50, HepG2 cells; mammalian cell toxicity
[12] = system: Escherichia coli (EC 25922); assay: CLR MIC in combination with 9k against EC 25922; assay type: cell-based
[13] = system: AB 5075; assay: Colistin MIC in absence or presence of compounds against AB 5075; assay type: cell-based, Acinetobacter baumannii
Source text: However, dropping LOS comes with fitness costs such as reduced growth rates, lower virulence, and increased sensitivity towards certain antibiotics.

[14] = system: A. baumannii; assay: CLR adjuvant activity with exogenous LOS added to the media; assay type: cell-based, Acinetobacter baumannii; settings: LOS from AB5075 at 0.2 mg/mL or 0.5 mg/mL
Description: First, we examined the impact that addition of MgCl2 had on activity. Divalent cations, such as Mg^2+, are known to stabilize the outer membrane of gram-negative bacteria and the activity of membrane disruptors are known to be muted/abrogated by the addition of such cations. When the media was supplemented with MgCl2 (20 mM final concentration), activity was essentially abolished. As suppression of activity could conceivably originate from either blocking the compound's mechanism of action or simply making the membrane more impermeable that leads to the inability of the compound to penetrate the outer membrane, we next studied the impact that the addition of exogenous LOS had upon activity.

[15] = Microsomal (metabolic) stability; assay type: in vitro ADME; settings: 60 minutes
[16] = system: A. baumannii strain 5075 (AB5075); assay: Standalone MIC against AB5075 (compound or antibiotic alone); assay type: cell-based, Acinetobacter baumannii; settings: Acinetobacter baumannii; compound alone, AB5075
Source text: Dimers were first analyzed for standalone toxicity against AB5075.

[17] = system: K. pneumoniae 2146; assay: Combination with RIF against K. pneumoniae 2146; assay type: cell-based, Klebsiella pneumoniae; settings: K. pneumoniae 2146, compared with the parent dimers
[18] = system: membrane integrity; assay: BacLight assay of membrane integrity; assay type: cell-based; settings: in comparison to untreated control
Source text: We then quantified how compound 9k impacted membrane integrity using the BacLight assay. Compound 9k had essentially no impact on the membrane in comparison to untreated control and produced a −1.2±2.2% change in membrane permeability.

[19] = system: AB 5075; settings: colistin alone, earlier work; cited from earlier work
[20] = AB5075, adjuvant at 7.5 μM (3.6 μg/mL)

Nc1nc(-c2ccc(NC(=O)Nc3cccc(-c4c[nH]c(N)n4)c3F)cc2F)c[nH]1 [Compound 9k, 1-(3-(2-amino-1H-imidazol-4-yl)-2-fluorophenyl)-3-(4-(2-amino-1H-imidazol-4-yl)-3-fluorophenyl)urea]
plasma stability (in words) [1]: steady concentration over 4 hours
lytic effect on red blood cells (in words) ([2]; compound at 10 μM in combination with 0.0625 μg/mL clarithromycin): little to no lytic effect
lytic effect on red blood cells (in words) ([2]; compound): little to no lytic effect
fold potentiation of CLR [3]: at least 256 fold
CLR MIC + 9k ([3]; 9k at 20 μM): 4/8
CLR MIC + 9k ([3]; 9k at 30 μM): 0.5 µg/mL
fold potentiation of CLR [4]: at least 256 fold
CLR MIC + 9k ([4]; 9k at 7.5 μM): 16 µg/mL
CLR MIC + 9k ([4]; 9k at 10 μM): 2 µg/mL
CLR MIC + 9k ([4]; 9k at 30 μM): 1 µg/mL
Compound MIC [5]: >200 µM
MIC [6]: 12.5 µM (≈ 5.13 µg/mL)
fold decrease of RIF MIC ([7]; AB5075, adjuvant at 5 μM (2.4 μg/mL)): 32 fold
fold decrease of AZM MIC [7, 20]: at least 64 fold
fold decrease of ERY MIC [7, 20]: at least 64 fold
fold decrease of RIF MIC ([7]; AB5075, adjuvant at 10 μM): 32 fold
activity in combination with AZM, ERM and RIF (in words) ([7]; AB5075, adjuvant at ≤30% their MIC): significant activity
Compound MIC [8]: >200 µM
lowering of CLR MIC values [9]: at least four-fold
lowest concentration at which the adjuvant suppressed the clarithromycin MIC to 2.0 μg/mL ([10]; AB5075, value in brackets): 0.72 µg/mL
CLR MIC ([10]; adjuvant at 1.5 μM): 2 µg/mL
Fold Reduction of CLR MIC ([10]; adjuvant at 1.5 μM): 16 fold
CLR MIC ([10]; adjuvant at 2.5 μM): 0.125 µg/mL
Fold Reduction of CLR MIC ([10]; adjuvant at 2.5 μM): 256 fold
Clarithromycin (CLR) MIC ([10]; adjuvant at 5 μM): 0.0625 µg/mL
Fold Reduction of CLR MIC ([10]; adjuvant at 5 μM): 512 fold
Clarithromycin (CLR) MIC ([10]; adjuvant at 7.5 μM): ≤0.0625 µg/mL
Fold Reduction of CLR MIC ([10]; adjuvant at 7.5 μM): ≥512 fold
Clarithromycin (CLR) MIC ([10]; adjuvant at 10 μM): ≤0.0625 µg/mL
Fold Reduction of CLR MIC ([10]; adjuvant at 10 μM): ≥512 fold
Clarithromycin (CLR) MIC ([10]; adjuvant at 20 μM): ≤0.0625 µg/mL
Fold Reduction of CLR MIC ([10]; adjuvant at 20 μM): ≥512 fold
Clarithromycin (CLR) MIC ([10]; adjuvant at 30 μM): ≤0.0625 µg/mL
Fold Reduction of CLR MIC ([10]; adjuvant at 30 μM): ≥512 fold
pIC50 [11]: 3.37
fold potentiation of CLR [12]: at least 256 fold
CLR MIC + 9k ([12]; 9k at 2.5 μM): 32 µg/mL
CLR MIC + 9k ([12]; 9k at 3.0 μM): 4 µg/mL
CLR MIC + 9k ([12]; 9k at 3.75 μM): 0.125 µg/mL
potentiation of colistin (in words) ([13]; AB5075): did not potentiate the activity
Colistin MIC ([13]; adjuvant at 30 μM, AB5075): 2 µg/mL
CLR adjuvant activity with exogenous LOS (in words) [14]: no loss of adjuvant activity
microsomal stability (in words) [15]: steady concentration over 60 minutes
MIC [16]: > 200 µM
potentiation of RIF (in words) [17]: greater potentiation activity at lower concentrations
change in membrane permeability [18]: −1.2±2.2%

colistin [reference compound]
Colistin MIC ([13]; colistin alone): 1 µg/mL
Colistin MIC ([13]; colistin alone, AB 5075): 1 µg/mL
Colistin MIC [19]: 1 µg/mL
